The subject of the experiment is β-catenin-TCF-mediated reporter transcription activity in Colo 205 cells. Put plainly: Colo 205 reporter assay (TCF/LEF luciferase). The following applies: Homo sapiens, COLO 205, 5 h, Colo 205 TCF/LEF luciferase reporter, five hours after addition of compound; read-out: TCF reporter Colo205 IC50. Type of experiment: cell-based. Summed up: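 Luciferase signal from a TCF/LEF-driven reporter, stably integrated in Colo 205 colon cancer cells, was measured 5 h after compound addition.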

On to `Cc1nc(N[C@H]2C[C@H](OCc3cc(F)c(F)c(F)c3)C2)nc2c1N(C)C(=O)[C@H](C)N2C` [Compound 255, (7S)-4,5,7,8-tetramethyl-2-((trans-3-((3,4,5-trifluorobenzyl)oxy)cyclobutyl)amino)-7,8-dihydropteridin-6(5H)-one], for which the IC50 – broadly, the midpoint of a concentration-inhibition curve – is under 300 nM.

Consider `C[C@H]1C(=O)Nc2cnc(N[C@H]3C[C@H](OCc4cc(F)c(F)c(F)c4)C3)nc2N1C` [Compound 256, (7S)-7,8-dimethyl-2-((trans-3-((3,4,5-trifluorobenzyl)oxy)cyclobutyl)amino)-7,8-dihydropteridin-6(5H)-one], for which the IC50 lay in the range of 300 to 1000 nM.

With `Cc1nc(N[C@H]2C[C@@H](COc3ccc(F)cc3)C2)nc2c1NC(=O)[C@H](C)N2C` [Compound 261, (7S)-2-((cis-3-((4-fluorophenoxy)methyl)cyclobutyl)amino)-4,7,8-trimethyl-7,8-dihydropteridin-6(5H)-one], the IC50 is under 300 nM.

`Cc1nc(N[C@H]2C[C@H](Oc3cncc(F)c3)C2)nc2c1NC(=O)[C@H](C)N2C` [Compound 262, (7S)-2-((trans-3-((5-fluoropyridin-3-yl)oxy)cyclobutyl)amino)-4,7,8-trimethyl-7,8-dihydropteridin-6(5H)-one]: the IC50 lay within 1000 to 5000 nM.

`Cc1nc(N[C@H]2C[C@@H](COc3cncc(F)c3)C2)nc2c1NC(=O)[C@H](C)N2C` [Compound 263, (7S)-2-((cis-3-(((5-fluoropyridin-3-yl)oxy)methyl)cyclobutyl)amino)-4,7,8-trimethyl-7,8-dihydropteridin-6(5H)-one]: the IC50 was in the range of 300 to 1000 nM.

Turning to `Cc1nc(N[C@H]2C[C@H](OCc3ccc(F)c(F)c3)C2)nc2c1NC(=O)[C@H](C)N2C` [Compound 264, (7S)-2-((trans-3-((3,4-difluorobenzyl)oxy)cyclobutyl)amino)-4,7,8-trimethyl-7,8-dihydropteridin-6(5H)-one], the IC50 was under 300 nM.

On to `C[C@H]1C(=O)Nc2cnc(N[C@H]3C[C@H](OCc4ccc(F)c(F)c4)C3)nc2N1C` [Compound 265, (7S)-2-((trans-3-((3,4-difluorobenzyl)oxy)cyclobutyl)amino)-7,8-dimethyl-7,8-dihydropteridin-6(5H)-one], for which the IC50 was 300 to 1000 nM.

Take `Cc1nc(N[C@H]2C[C@H](OCc3ccc(F)c(F)c3)C2)nc2c1N(C)C(=O)[C@H](C)N2C` [Compound 266, (7S)-2-((trans-3-((3,4-difluorobenzyl)oxy)-cyclobutyl)amino)-4,5,7,8-tetramethyl-7,8-dihydropteridin-6(5H)-one]: the IC50 is 300 to 1000 nM.

With `Cc1nc(N[C@H]2C[C@@H](COc3ccc(F)nc3)C2)nc2c1NC(=O)[C@H](C)N2C` [Compound 270, (7S)-2-((cis-3-(((6-fluoropyridin-3-yl)oxy)methyl)cyclobutyl)amino)-4,7,8-trimethyl-7,8-dihydropteridin-6(5H)-one], the IC50 was in the range of 300 to 1000 nM.

As to `Cc1nc(N[C@H]2C[C@@H](COc3ccc(F)c(F)c3)C2)nc2c1NC(=O)[C@H](C)N2C` [Compound 271, (7S)-2-((cis-3-((3,4-difluorophenoxy)methyl)cyclobutyl)amino)-4,7,8-trimethyl-7,8-dihydropteridin-6(5H)-one], the IC50 was under 300 nM.

Consider `Cc1nc(N[C@H]2CC[C@H](Oc3cc(F)c(F)c(F)c3)C2)nc2c1N(C)C(=O)[C@H](C)N2C` [Compound 273, (S)-4,5,7,8-tetramethyl-2-(((1S,3S)-3-(3,4,5-trifluorophenoxy)cyclopentyl)amino)-7,8-dihydropteridin-6(5H)-one], for which the IC50 is under 300 nM.

Turning to `Cc1nc(N[C@H]2C[C@H](Oc3ncc(F)cn3)C2)nc2c1N(C)C(=O)[C@H](C)N2C` [Compound 274, (S)-2-((trans-3-((5-fluoropyrimidin-2-yl)oxy)cyclobutyl)amino)-4,5,7,8-tetramethyl-7,8-dihydropteridin-6(5H)-one], the 50% inhibitory concentration (IC50) is at least 5000 nM.

Consider `Cc1nc(N[C@H]2C[C@H](Oc3ncc(F)cn3)C2)nc2c1NC(=O)[C@H](C)N2C` [Compound 276, (7S)-2-((trans-3-((5-fluoropyrimidin-2-yl)oxy)cyclobutyl)amino)-4,7,8-trimethyl-7,8-dihydropteridin-6(5H)-one], for which the IC50 was at least 5000 nM.

With `Cc1nc(N[C@H]2C[C@@H](COc3ccc(F)cc3C#N)C2)nc2c1NC(=O)[C@H](C)N2C` [Compound 277, 5-fluoro-2-((cis-3-(((7S)-4,7,8-trimethyl-6-oxo-5,6,7,8-tetrahydropteridin-2-yl)amino)cyclobutyl)methoxy)benzonitrile], the IC50 is under 300 nM.

As to `Cc1nc(NC2CC2COc2ccccc2)nc2c1NC(=O)[C@H](C)N2C` (stereo partly drawn) [Compound 278, (7S)-4,7,8-trimethyl-2-((2-(phenoxymethyl)cyclopropyl)-amino)-7,8-dihydropteridin-6(5H)-one], the IC50 was 1000 to 5000 nM.

Take `Cc1nc(N[C@H]2C[C@@H](Cn3cc(F)cn3)C2)nc2c1NC(=O)[C@H](C)N2C` [Compound 279, (7S)-2-((cis-3-((4-fluoro-1H-pyrazol-1-yl)methyl)cyclobutyl)amino)-4,7,8-trimethyl-7,8-dihydropteridin-6(5H)-one]: the half-maximal inhibitory concentration (IC50) lay within 300 to 1000 nM.

As to `COc1cc(OC[C@H]2C[C@@H](Nc3nc(C)c4c(n3)N(C)[C@@H](C)C(=O)N4)C2)cc(OC)c1OC` [Compound 280, (7S)-4,7,8-trimethyl-2-((cis-3-((3,4,5-trimethoxyphenoxy)methyl)-cyclobutyl)amino)-7,8-dihydropteridin-6(5H)-one], the IC50 is under 300 nM.

For the compound `Cc1nc(N[C@H]2C[C@@H](COc3ccc(F)c(F)c3F)C2)nc2c1NC(=O)[C@H](C)N2C` [Compound 281, (7S)-4,7,8-trimethyl-2-((cis-3-((2,3,4-trifluorophenoxy)methyl)cyclobutyl)-amino)-7,8-dihydropteridin-6(5H)-one], the IC50 is under 300 nM.

With `Cc1nc(N[C@H]2C[C@@H](COc3ccc(F)cc3Cl)C2)nc2c1NC(=O)[C@H](C)N2C` [Compound 282, (7S)-2-((cis-3-((2-chloro-4-fluorophenoxy)methyl)cyclobutyl)amino)-4,7,8-trimethyl-7,8-dihydropteridin-6(5H)-one], the IC50 is under 300 nM.

Take `C#Cc1cccc(OC[C@H]2C[C@@H](Nc3nc(C)c4c(n3)N(C)[C@@H](C)C(=O)N4)C2)c1` [Compound 283, (7S)-2-((cis-3-((3-ethynylphenoxy)methyl)cyclobutyl)amino)-4,7,8-trimethyl-7,8-dihydropteridin-6(5H)-one]: the IC50 is under 300 nM.

`COc1c(F)cc(OC[C@H]2C[C@@H](Nc3nc(C)c4c(n3)N(C)[C@@H](C)C(=O)N4)C2)cc1F` [Compound 284, (7S)-2-((cis-3-((3,5-difluoro-4-methoxyphenoxy)methyl)cyclobutyl)amino)-4,7,8-trimethyl-7,8-dihydropteridin-6(5H)-one]: the IC50 is under 300 nM.

As to `Cc1nc(N[C@H]2C[C@@H](COc3cc(F)c(F)cc3F)C2)nc2c1NC(=O)[C@H](C)N2C` [Compound 285, (7S)-4,7,8-trimethyl-2-((cis-3-((2,4,5-trifluorophenoxy)methyl)cyclobutyl)-amino)-7,8-dihydropteridin-6(5H)-one], the IC50 is under 300 nM.

On to `Cc1nc(N[C@H]2C[C@@H](COCc3ccc(F)cc3)C2)nc2c1NC(=O)[C@H](C)N2C` [Compound 286, (7S)-2-((cis-3-(((4-fluorobenzyl)oxy)methyl)cyclobutyl)amino)-4,7,8-trimethyl-7,8-dihydropteridin-6(5H)-one], for which the IC50 is under 300 nM.

Source of the values: patent US20230312587A1, “PTERIDINONE COMPOUNDS AND USES THEREOF” (Vertex Pharmaceutical Incorporated, priority 2018, published 2023).
